Source: patent publication US10654820B2, “Crystal form of tasimelteon” (ZHEJIANG JINGXIN PHARMACEUTICAL CO., LTD., priority 2016, dated 2020)
Converted amounts (≈) assume the structure as drawn. “Also recorded” adds a separate entry of the source.

Tests used:
[1] = system: totally blind subjects diagnosed with non-24; conditions: cited from earlier work
[2] = Thermogravimetric analysis (TGA), thermal stability; format: physicochemical; conditions: for thermal stability: result in words
Procedure: Thermogravimetric Analysis (TGA)
TGA was performed on a TA instruments SDT Q600 thermogravimetric analyzer. The samples were heated over the temperature range room temperature of 30-365° C. at a constant heating rate of 10° C./min. The samples were purged with a stream of flowing nitrogen at 120 ml/min throughout the experiment.

[3] = Solubility in water at 37° C. (equilibrium solubility, 72 hours, absorbance at 281 nm); format: physicochemical; conditions: balanced for 72 hours
Procedure: Example 22 Solubility in Water at 37° C.
Move 25 ml water into a 50 ml eggplant bottle separately, add crystal form I and crystal form II Tasimelteon separately, stir in a constant temperature oil bath to balance for 72 hours, and then filtrate by 0.45 microporous membrane. The filtrate is diluted by water. The water solubilities of crystal form I and crystal form II at 37° C. were determined by calculating each sample concentration of its saturated solution determined through measuring absorbance at λmax (281 nm). Standard curve method is used to calculate the equilibrium solubility.

[4] = Intrinsic dissolution studies in water; format: physicochemical; conditions: 37° C., 150 r.p.m., compressed disk
Procedure: Example 23 Intrinsic Dissolution Studies
200 mg of crystal form I or crystal form II was taken in the intrinsic attachment and compressed to a 1.33 cm^2 and 0.1 cm thick of disk using a hydraulic press at a pressure of 9 MPa for 60 s. The intrinsic attachment was placed in a jar of 100 mL of water to 37° C. and rotated at 150 r.p.m. 1 milliliter of the aliquot each is collected at specific time intervals and blank medium of the same volume and temperature is added, and the absorbance at max (281 nm) is measured, and the cumulative dissolution rate is calculated to plot the concentration-time standard curves of the respective compounds.

CCC(=O)NC[C@@H]1C[C@H]1c1cccc2c1CCO2 [Tasimelteon, (1R-2R)—N-[2-(2,3-dihydrobenzofuran-4-yl)cyclopropylmethyl]propanamide]
proportion of individuals becoming entrained to the 24-hour cycle ([1]; physiologic monitoring, compared with placebo): higher proportion of individuals becoming entrained to the 24-hour cycle compared with placebo
efficacy on nighttime wakefulness and daytime napping ([1]; totally blind subjects diagnosed with non-24): reducing both nighttime wakefulness and daytime napping

CCC(=O)NC[C@@H]1C[C@H]1c1cccc2c1CCO2 [crystal form I, (1R-2R)—N-[2-(2,3-dihydrobenzofuran-4-yl)cyclopropylmethyl]propanamide]
thermal stability [2]: good thermal stability
solubility at 72 h ([3]; 37 °C, thermodynamic from solid): 81 µg/mL (≈ 330 µM)
intrinsic dissolution rate ([4]; FIG. 9): high
intrinsic dissolution rate ([4]; FIG. 9, listed as form I): good dissolution rate

CCC(=O)NC[C@@H]1C[C@H]1c1cccc2c1CCO2 [crystal form II, (1R-2R)—N-[2-(2,3-dihydrobenzofuran-4-yl)cyclopropylmethyl]propanamide]
decomposition temperature (TGA) ([2]; heating rate of 10° C./min, nitrogen): approximately 200 °C
thermal stability [2]: good thermal stability
water solubility [3]: 104 µg/mL (≈ 424 µM)
intrinsic dissolution rate ([4]; FIG. 9): high in water, especially for crystal form II compared to crystal form I; also recorded: good dissolution rate, especially for crystal form II compared to form I
